Test results taken from the supplement of paper PMC13380429.

Assays:
Settings in all cases: 72 h
Calu-3 [1] = experiment: relative viability EC50 (midpoint between 100% and the lowest measured viability); higher = less toxic
Caco-2 [2] = experiment: as above
U2OS [3] = experiment: as above
HepG2 [4] = experiment: as above
Vero E6 [5] = experiment: as above
Calu-3 [6] = experiment: drug sensitivity score (DSS) for viability; higher = more toxic; extreme values may be limits of the assay
Caco-2 [7] = experiment: as above
U2OS [8] = experiment: as above
HepG2 [9] = experiment: as above
Vero E6 [10] = experiment: as above
Calu-3 [11] = experiment: cell viability relative to DMSO; higher = less toxic
Caco-2 [12] = experiment: as above
U2OS [13] = experiment: as above
HepG2 [14] = experiment: as above
Vero E6 [15] = experiment: as above

Structure (SMILES)	relative viability EC50 (Calu-3 [1]) [µM]	relative viability EC50 (Caco-2 [2]) [µM]	relative viability EC50 (U2OS [3]) [µM]	relative viability EC50 (HepG2 [4]) [µM]	relative viability EC50 (Vero E6 [5]) [µM]	drug sensitivity score (Calu-3 [6])	drug sensitivity score (Caco-2 [7])	drug sensitivity score (U2OS [8])	drug sensitivity score (HepG2 [9])	drug sensitivity score (Vero E6 [10])	cell viability (Calu-3 [11]; 1 nM) [%]	cell viability (Calu-3 [11]; 10 nM) [%]	cell viability (Calu-3 [11]; 100 nM) [%]	cell viability (Calu-3 [11]; 1000 nM) [%]	cell viability (Calu-3 [11]; 10000 nM) [%]	cell viability (Caco-2 [12]; 1 nM) [%]	cell viability (Caco-2 [12]; 10 nM) [%]	cell viability (Caco-2 [12]; 100 nM) [%]	cell viability (Caco-2 [12]; 1000 nM) [%]	cell viability (Caco-2 [12]; 10000 nM) [%]	cell viability (U2OS [13]; 1 nM) [%]	cell viability (U2OS [13]; 10 nM) [%]	cell viability (U2OS [13]; 100 nM) [%]	cell viability (U2OS [13]; 1000 nM) [%]	cell viability (U2OS [13]; 10000 nM) [%]	cell viability (HepG2 [14]; 1 nM) [%]	cell viability (HepG2 [14]; 10 nM) [%]	cell viability (HepG2 [14]; 100 nM) [%]	cell viability (HepG2 [14]; 1000 nM) [%]	cell viability (HepG2 [14]; 10000 nM) [%]	cell viability (Vero E6 [15]; 1 nM) [%]	cell viability (Vero E6 [15]; 10 nM) [%]	cell viability (Vero E6 [15]; 100 nM) [%]	cell viability (Vero E6 [15]; 1000 nM) [%]	cell viability (Vero E6 [15]; 10000 nM) [%]
CN1CCN(C(c2ccccc2)c2ccccc2)CC1 [cyclizine]	> 10	> 10	> 10	> 10	> 10	0	0	0	0	0	104	98.9	85.8	102	99.9	95.7	101	99.9	94.9	103	105	94	101	95.6	97.5	94.7	99.1	103	104	97.6	97.7	96.3	93.7	96	102
CC(C)(C)OC(=O)N[C@H]1CCCCC/C=C\[C@@H]2C[C@@]2(C(=O)NS(=O)(=O)C2CC2)NC(=O)[C@@H]2C[C@@H](OC(=O)N3Cc4cccc(F)c4C3)CN2C1=O [danoprevir]	> 10	> 10	> 10	> 10	> 10	0	0.3	0	0	0	107	103	85.1	107	102	98.1	98.5	98.4	101	83	104	101	98.9	99.4	98.2	109	104	94.2	92	95.1	106	98.8	98.6	103	103
C[C@H](CCC(=O)O)[C@H]1CC[C@H]2[C@@H]3CC[C@@H]4C[C@H](O)CC[C@]4(C)[C@H]3C[C@H](O)[C@]12C [deoxycholic-acid]	> 10	> 10	> 10	> 10	> 10	0	0	0	0	0	103	93.9	103	102	102	102	97.5	98.5	105	90	96.8	99.2	98.7	99.8	98.2	105	112	90.9	102	97.5	99.5	103	102	106	101
C[C@@H](CN1CC(=O)NC(=O)C1)N1CC(=O)NC(=O)C1 [dexrazoxane]	> 10	> 10	> 10	> 10	> 10	0	0	0	0	0	104	92.2	95.1	96.9	101	89.3	103	90.4	105	90.3	96.9	109	96.7	102	98.6	93.9	106	98.2	92.2	100	105	101	103	93.8	99.7
O[C@H]([C@H](O)[C@@H]1CO1)[C@H]1CO1 [dianhydrogalactitol]	> 10	> 10	> 10	> 10	> 10	0	0	0	0	0	103	107	99.3	95.4	94.2	97.4	95.8	101	104	95.7	99.1	104	97.2	100	100	99.4	101	104	90.8	91.1	97.6	96.9	93.2	97.2	99.9
NC[C@@H]1CC[C@@H](N)[C@@H](O[C@H]2[C@H](O)[C@@H](O[C@H]3O[C@H](CO)[C@@H](O)[C@H](N)[C@H]3O)[C@H](N)C[C@@H]2N)O1 [dibekacin]	> 10	> 10	> 10	> 10	> 10	0	0	0	0	0	101	91.9	114	101	95	96	94.4	101	93.5	106	104	97.9	101	98	104	96.5	101	89.1	102	94.5	103	103	98.1	101	101
CC(=O)OCC(=O)[C@@]1(OC(C)=O)[C@@H](C)C[C@H]2[C@@H]3C[C@H](F)C4=CC(=O)C=C[C@]4(C)[C@@]3(F)[C@@H](O)C[C@@]21C [diflorasone-diacetate]	> 10	> 10	> 10	> 10	> 10	0	0.2	0	0	0	105	95.9	93.1	100	101	110	106	99	98.4	87.6	102	96.9	95.9	96.5	89.9	82.6	90.4	87.9	97.8	95.2	104	106	105	90.7	98.1
CCCCCCCCCCCC[N+](C)(C)CCOc1ccccc1 [domiphen]	3.31	3.22	2.8	2.46	> 10	3.9	4.9	5.6	4.8	0.5	90.9	92.7	91.5	102	26.8	85.6	99.3	95	101	11.1	93.6	102	94.9	95.7	9.5	103	95.3	100	94	30	100	98.8	96.6	93	83.8
COc1ccccc1N1CCN(CC(O)COc2cc(OC)c(OC)c(OC)c2)CC1 (stereo not given) [enciprazine]	> 10	> 10	> 10	> 10	> 10	0	0	0	0	0	101	106	100	98.1	105	104	97.9	89.3	93.8	99.8	94.9	98.2	95.1	96	94.9	98.3	99.9	91.4	94.2	96	100	101	101	99.1	99.4
CCCCCCCCCCCCCCCCCCCCCC(=O)Nc1ccn([C@@H]2O[C@H](CO)[C@@H](O)[C@@H]2O)c(=O)n1 [enocitabine]	> 10	> 10	> 10	> 10	> 10	0	0	0	0.4	0	99.2	99	104	94.9	95.7	78.8	67.8	90.5	114	92.3	94.1	95.2	95.4	93.6	102	98	102	100	112	79.2	95.6	97.2	91.9	94	107
CCn1cnc(C(=O)NC)c1C(=O)NC [ethimizol]	> 10	> 10	> 10	> 10	> 10	0	0	0	0	0	102	92.4	91.3	102	99.1	97.5	104	91.5	99.1	92.3	98.6	102	98.1	98.2	94.9	89.3	114	103	104	111	96.4	96.2	96.4	99.9	100
Cc1cc(C#N)cc(C)c1Oc1nc(Nc2ccc(C#N)cc2)nc(N)c1Br [etravirine]	> 10	> 10	> 10	> 10	> 10	0	0	0	0	0	94.3	95.8	95.7	96.5	103	94	93.7	97.2	105	102	103	95.2	97.2	95.2	95.3	110	101	92.3	99.8	102	97.5	97.9	95.7	105	107
N#Cc1ccc(C2CCCc3cncn32)cc1 (stereo not given) [fadrozole]	> 10	> 10	> 10	> 10	> 10	0	0	0	0	0	91.1	103	96.6	98	95.3	77.9	87.4	89.6	92.6	82.3	96.2	91.4	96.4	93.4	97.4	96.9	100	91.6	103	96.2	95.4	95.6	89.1	94.9	95.2
